Test results from ChEMBL document CHEMBL1255495, “Experimental conditions that enhance potency of an antibacterial oligo-acyl-lysyl” (2010).
≈ marks a conversion by molar mass, not a printed value. Calls of active or inactive are those of the source. The calls are words filed in the database; no cut-off is given here.

Tests used:
[1] = system: Escherichia coli; experiment: Antibacterial activity against Escherichia coli O157:H7 ATCC 43894 at pH 3.5 after 24 hrs by microdilution method; assay type: functional; conditions: O157:H7 ATCC 43894, 24 h
[2] = system: Escherichia coli; experiment: Antibacterial activity against Escherichia coli O157:H7 ATCC 43894 at pH 5.5 after 24 hrs by microdilution method; assay type: functional; conditions: O157:H7 ATCC 43894, 24 h
[3] = system: Escherichia coli; experiment: Antibacterial activity against Escherichia coli O157:H7 ATCC 43894 at pH 7 after 24 hrs by microdilution method; assay type: functional; conditions: O157:H7 ATCC 43894, 24 h
[4] = system: Escherichia coli; experiment: Antibacterial activity against Escherichia coli O157:H7 ATCC 43894 at pH 8.5 after 24 hrs by microdilution method; assay type: functional; conditions: O157:H7 ATCC 43894, 24 h
[5] = system: Escherichia coli; experiment: Antibacterial activity against Escherichia coli O157:H7 ATCC 43894 after 24 hrs by microdilution method in presence of 85 mM NaCl; assay type: functional; conditions: O157:H7 ATCC 43894, 24 h
[6] = system: Escherichia coli; experiment: Antibacterial activity against Escherichia coli O157:H7 ATCC 43894 after 24 hrs by microdilution method in presence of 170 mM NaCl; assay type: functional; conditions: O157:H7 ATCC 43894, 24 h
[7] = system: Staphylococcus aureus; experiment: Antibacterial activity against methicillin-resistant Staphylococcus aureus isolate 15903 after 24 hrs at 48 degC by microdilution method; assay type: functional; conditions: isolate 15903, 24 h
[8] = system: Staphylococcus aureus; experiment: Antibacterial activity against Staphylococcus aureus ATCC 25923 at pH 7 after 24 hrs by microdilution method; assay type: functional; conditions: ATCC 25923, 24 h
[9] = system: Staphylococcus aureus; experiment: Antibacterial activity against Staphylococcus aureus ATCC 29213 at pH 7 after 24 hrs by microdilution method; assay type: functional; conditions: ATCC 29213, 24 h
[10] = system: Staphylococcus aureus; experiment: Antibacterial activity against methicillin-resistant Staphylococcus aureus ATCC 43300 at pH 7 after 24 hrs by microdilution method; assay type: functional; conditions: ATCC 43300, 24 h
[11] = system: Escherichia coli; experiment: Antibacterial against Escherichia coli O157:H7 ATCC 43894 at pH 8.5 after 24 hrs at 48 degC by microdilution method in presence of 85 mM NaCl; assay type: functional; conditions: O157:H7 ATCC 43894, 24 h
[12] = system: Listeria monocytogenes; experiment: Antibacterial against Listeria monocytogenes ATCC 19115 at pH 8.5 after 24 hrs at 48 degC by microdilution method in presence of 85 mM NaCl; assay type: functional; conditions: ATCC 19115, 24 h
[13] = system: Staphylococcus aureus; experiment: Antibacterial against methicillin-resistant Staphylococcus aureus isolate 15903 at pH 8.5 after 24 hrs at 48 degC by microdilution method in presence of 85 mM NaCl; assay type: functional; conditions: isolate 15903, 24 h
[14] = system: Lipid bilayer; experiment: Binding affinity to phospholipid membrane model at pH 8.5 by surface plasmon resonance in presence of 140 mM NaCl
[15] = system: Listeria monocytogenes; experiment: Ratio of MIC for Listeria monocytogenes ATCC 19115 in presence of 85 mM NaCl to MIC for Listeria monocytogenes ATCC 19115 at pH 8.5 after 24 hrs at 48 degC in presence of 85 mM NaCl; assay type: functional
[16] = system: Staphylococcus aureus; experiment: Ratio of MIC for methicillin-resistant Staphylococcus aureus isolate 15903 in presence of 85 mM NaCl to MIC for methicillin-resistant Staphylococcus aureus isolate 15903 at pH 8.5 after 24 hrs at 48 degC in presence of 85 mM NaCl; assay type: functional
[17] = system: Escherichia coli; experiment: Antibacterial activity against Escherichia coli O157:H7 ATCC 43894 assessed as reduction in bacterial population at 0.01 to 10 uM up to 15 mins by time-kill assay; assay type: functional
[18] = system: Listeria monocytogenes; experiment: Antibacterial activity against Listeria monocytogenes ATCC 19115 assessed as reduction in bacterial population at 0.01 to 10 uM up to 15 mins by time-kill assay; assay type: functional
[19] = system: Staphylococcus aureus; experiment: Antibacterial activity against methicillin-resistant Staphylococcus aureus isolate 15903 assessed as reduction in bacterial population at 0.01 to 10 uM up to 15 mins by time-kill assay; assay type: functional
[20] = system: Lipid bilayer; experiment: Binding affinity to phospholipid membrane model at pH 7 by surface plasmon resonance in presence of 140 mM NaCl
[21] = system: Escherichia coli; experiment: Antibacterial activity against Escherichia coli O157:H7 ATCC 43894 after 24 hrs by microdilution method in presence of 260 mM NaCl; assay type: functional; conditions: O157:H7 ATCC 43894, 24 h
[22] = system: Escherichia coli; experiment: Antibacterial activity against Escherichia coli O157:H7 ATCC 43894 after 24 hrs by microdilution method in presence of 515 mM NaCl; assay type: functional; conditions: O157:H7 ATCC 43894, 24 h
[23] = system: Escherichia coli; experiment: Antibacterial activity against Escherichia coli O157:H7 ATCC 43894 after 24 hrs by microdilution method in presence of 1030 mM NaCl; assay type: functional; conditions: O157:H7 ATCC 43894, 24 h
[24] = system: Escherichia coli; experiment: Antibacterial activity against Escherichia coli O157:H7 ATCC 43894 after 24 hrs by microdilution method in presence of 20 mM MgCl2; assay type: functional; conditions: O157:H7 ATCC 43894, 24 h
[25] = system: Escherichia coli; experiment: Antibacterial activity against Escherichia coli O157:H7 ATCC 43894 after 24 hrs by microdilution method in presence of 40 mM MgCl2; assay type: functional; conditions: O157:H7 ATCC 43894, 24 h
[26] = system: Escherichia coli; experiment: Antibacterial activity against Escherichia coli O157:H7 ATCC 43894 after 24 hrs by microdilution method in presence of 80 mM MgCl2; assay type: functional; conditions: O157:H7 ATCC 43894, 24 h
[27] = system: Escherichia coli; experiment: Antibacterial activity against Escherichia coli O157:H7 ATCC 43894 after 24 hrs by microdilution method in presence of 160 mM MgCl2; assay type: functional; conditions: O157:H7 ATCC 43894, 24 h
[28] = system: Escherichia coli; experiment: Antibacterial activity against Escherichia coli O157:H7 ATCC 43894 after 72 hrs at 4 degC by microdilution method; assay type: functional; conditions: O157:H7 ATCC 43894, 72 h
[29] = system: Escherichia coli; experiment: Antibacterial activity against Escherichia coli O157:H7 ATCC 43894 after 24 hrs at 25 degC by microdilution method; assay type: functional; conditions: O157:H7 ATCC 43894, 24 h

CCCCCCCCCCCC(=O)N[C@@H](CCCCN)C(=O)NCCCCCCCC(=O)N[C@@H](CCCCN)C(=O)NCCCCCCCC(=O)N[C@@H](CCCCN)C(=O)NCCCCCCCC(=O)N[C@@H](CCCCN)C(=O)NCCCCCCCC(=O)N[C@@H](CCCCN)C(=O)NCCCCCCCC(=O)N[C@@H](CCCCN)C(=O)NCCCCCCCC(=O)N[C@@H](CCCCN)C(=O)NCCCCCCCC(=O)N[C@@H](CCCCN)C(N)=O
MIC [1]: > 50 µM | MIC [2]: 3.1 µM (≈ 6.86 µg/mL) | MIC [3]: 3.1 µM (≈ 6.86 µg/mL) | MIC [4]: 1.6 µM (≈ 3.54 µg/mL) | MIC [5]: 3.1 µM | MIC [6]: 3.1 µM | MIC [7]: 3.1 µM (≈ 6.86 µg/mL) | MIC [8]: 25 µM (≈ 55.3 µg/mL) | MIC [9]: 50 µM (≈ 111 µg/mL) | MIC [10]: 50 µM (≈ 111 µg/mL) | MIC [11]: 0.2 µM | MIC [12]: 0.05 µM | MIC [13]: 0.8 µM | Activity [14]: Active | Ratio [15]: 32 | Ratio [16]: 16 | inhibition (INH) [17]: 99% | inhibition (INH) [18]: 99% | inhibition (INH) [19]: 99% | Activity [20]: inactive | MIC [21]: 6.3 µM | MIC [22]: 6.3 µM | MIC [23]: 12.5 µM | MIC [24]: 3.1 µM | MIC [25]: 6.3 µM | MIC [26]: 12.5 µM | MIC [27]: 50 µM | MIC [28]: 6.3 µM (≈ 13.9 µg/mL) | MIC [29]: 3.1 µM (≈ 6.86 µg/mL)
